This passage reports EC50 results from PubChem BioAssay AID493058 (The Scripps Research Institute Molecular Screening Center, 2011).

Activity calls are given as the source filed them.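 Rule for the calls: active = EC50 of 10 µM or lower; inactive = EC50 above 10 µM.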

For the assay, the system named is DHL10 Bax/Bak-deficient cells, cytotoxicity, MTS absorbance. The assay can be described thus: DHL10 Bax/Bak-null cell killing – MTS absorbance, EC50, counter-screen for MCL1-BIM inhibitor project, late-stage follow-up (AID 493058). (A counterscreen serves to expose hits that act by an unwanted route or on another target.)
For the molecule `O=C(Nc1nc2ccccc2s1)c1cc(-c2ccco2)nc2ccccc12`, the EC50 (commonly the concentration at which the effect is half-maximal) was > 25 µM (inactive).

For `COc1ccc(CCNC(=O)c2cc(-c3ccco3)nc3ccccc23)cc1`, the EC50 is > 25 µM (inactive).

Regarding `COc1ccc(Cc2nnc(NC(=O)Cc3ccccc3C)s2)cc1OC`, the EC50 is > 25 µM (inactive).

Consider `CN(CC(=O)Nc1cccc(F)c1)C(=O)c1cc(-c2ccco2)nc2ccccc12`, for which the EC50 is > 25 µM (inactive).

Regarding `CC(C)CCNC(=O)c1cc(-c2ccco2)nc2ccccc12`, the EC50 was > 25 µM (inactive).

As to `COc1cccc(CC(=O)Nc2nnc(Cc3ccc(OC)c(OC)c3)s2)c1`, the EC50 is > 25 µM (inactive).

For the molecule `COc1ccc(Cc2nnc(NC(=O)CCc3ccco3)s2)cc1OC`, the EC50 is > 25 µM (inactive).

Regarding `Cc1ccc(-c2cc(C(=O)N3CCN(c4ccccc4O)CC3)c3ccccc3n2)o1`, the EC50 was > 25 µM (inactive).

Regarding `CCN(CC)C(=O)COc1ccc2c(-c3ccc(OC)cc3)cc(=O)oc2c1`, the EC50 was > 25 µM (inactive).

On to `COc1ccc(Cc2nnc(NC(=O)CCc3cccs3)s2)cc1OC`, for which the EC50 was > 25 µM (inactive).

Take `O=C(Nc1ccccc1N1CCOCC1)c1cc(-c2ccco2)nc2ccccc12`: the EC50 was > 25 µM (inactive).

On to `CCc1nnc(NC(=O)c2cc(-c3ccco3)nc3ccccc23)s1`, for which the EC50 was > 25 µM (inactive).

Turning to `Cc1ccc(S(=O)(=O)N(C)C)cc1NC(=O)c1cc(-c2ccco2)nc2ccccc12`, the EC50 was > 25 µM (inactive).

Consider `Cc1ccc(-c2cc(C(=O)NCCCn3ccnc3)c3cc(Br)ccc3n2)o1`, for which the EC50 is > 25 µM (inactive).

With `Cc1ccc(-c2cc(C(=O)Nc3cccnc3)c3ccccc3n2)o1`, the EC50 was > 25 µM (inactive).

On to `COC(=O)C1CCN(C(=O)c2cc(-c3ccco3)nc3ccccc23)CC1`, for which the EC50 was > 25 µM (inactive).

On to `O=C(Nc1cccnc1)c1cc(-c2ccco2)nc2ccc(Br)cc12`, for which the EC50 was > 25 µM (inactive).

In the case of `COc1ccc(Cc2nnc(NC(=O)Cc3cc(F)cc(F)c3)s2)cc1OC`, the EC50 was > 25 µM (inactive).

Consider `COc1ccc(NC(=O)c2cc(-c3ccco3)nc3ccccc23)cn1`, for which the EC50 was > 25 µM (inactive).

Consider `CN(C)C(=O)c1ccc(NC(=O)c2cc(-c3ccco3)nc3ccccc23)cc1`, for which the EC50 is > 25 µM (inactive).

In the case of `COc1ccc(Cc2nnc(NC(=O)c3cc(-c4ccc(C)o4)nc4ccccc34)s2)cc1OC`, the EC50 is 25 µM (inactive).

As for `CCCCn1c(N)c(N(CCOC)C(=O)c2cc(-c3ccco3)nc3ccccc23)c(=O)[nH]c1=O`, the EC50 was > 25 µM (inactive).

As for `Cc1cccc(NC(=O)c2cc(-c3ccco3)nc3ccc(Br)cc23)n1`, the EC50 is 10 µM.

As for `O=C(Nc1ccccn1)c1cc(-c2ccco2)nc2ccc(Br)cc12`, the EC50 was 10 µM.

As to `CC1CCCN(C(=O)c2cc(-c3ccco3)nc3ccccc23)C1` (configuration not stated), the EC50 is > 25 µM (inactive).

For the molecule `COc1ccc(Cc2nnc(CC(=O)Nc3cccs3)s2)cc1`, the EC50 was > 25 µM (inactive).

Consider `Cc1ccnc(NC(=O)c2cc(-c3ccc(C)o3)nc3ccccc23)c1`, for which the EC50 was > 25 µM (inactive).

As to `O=C(c1cc(-c2ccco2)nc2ccccc12)N1CCN(Cc2ccccc2)CC1`, the EC50 was > 25 µM (inactive).

Take `COc1ccc(NC(=O)c2cc(-c3ccco3)nc3ccccc23)cc1S(=O)(=O)N1CCOCC1`: the EC50 was > 25 µM (inactive).

As for `COc1ccc(Cc2nnc(NC(=O)c3cc(-c4ccco4)nc4ccc(Br)cc34)s2)cc1OC`, the EC50 was 20 µM (inactive).

With `Cc1ccc(-c2cc(C(=O)N3CCOCC3)c3ccccc3n2)o1`, the EC50 is > 25 µM (inactive).

As for `COc1ccc(Cc2nnc(NC(=O)Cc3sc(=S)[nH]c3C)s2)cc1OC`, the EC50 was > 25 µM (inactive).

As to `Cc1ccc(-c2cc(C(=O)Nc3nccs3)c3ccccc3n2)o1`, the EC50 was > 25 µM (inactive).

Turning to `COc1ccc(Cc2nnc(NC(=O)Cc3cccs3)s2)cc1`, the EC50 is > 25 µM (inactive).

Consider `COc1ccc(Cc2nnc(NC(=O)Cc3ccsc3)s2)cc1OC`, for which the EC50 was > 25 µM (inactive).

For `CCCCCCNC(=O)c1cc(-c2ccco2)nc2ccccc12`, the EC50 was > 25 µM (inactive).

With `COc1ccc(Cc2nnc(NC(=O)Cc3ccc(-c4ccccc4)cc3)s2)cc1OC`, the EC50 was > 25 µM (inactive).

As to `Cc1ccc(-c2cc(C(=O)Nc3cccc(S(=O)(=O)N(C)C)c3)c3ccccc3n2)o1`, the EC50 is > 25 µM (inactive).

Turning to `Cc1ccc(-c2cc(C(=O)N3CCCC(C(F)(F)F)C3)c3ccccc3n2)o1` (configuration not stated), the EC50 is > 25 µM (inactive).

On to `COc1ccc(NC(=O)c2cc(-c3ccco3)nc3ccccc23)cc1`, for which the EC50 was > 25 µM (inactive).

For the molecule `CCOc1cc(N2CCOCC2)c(OCC)cc1NC(=O)c1cc(-c2ccco2)nc2ccccc12`, the EC50 is > 25 µM (inactive).

For the molecule `Cc1ccc(NC(=O)c2cc(-c3ccc(C)o3)nc3ccccc23)nc1`, the EC50 is > 25 µM (inactive).

Take `COc1cccc(NC(=O)c2cc(-c3ccc(C)o3)nc3ccccc23)c1`: the EC50 was > 25 µM (inactive).

For the molecule `COc1cccc(NC(=O)c2cc(-c3ccco3)nc3ccccc23)c1`, the EC50 is > 25 µM (inactive).

In the case of `Cc1ccc(-c2cc(C(=O)NCC(c3ccccc3)N(C)C)c3ccccc3n2)o1` (configuration not stated), the EC50 was > 25 µM (inactive).

In the case of `COc1ccc(Cc2nnc(NC(=O)Cc3ccc(C)cc3)s2)cc1OC`, the EC50 is > 25 µM (inactive).

For the molecule `O=C(NC(=S)Nc1cccc(S(=O)(=O)NC2=NCCC2)c1)c1cc(-c2ccco2)nc2ccccc12`, the EC50 is > 25 µM (inactive).
